In US20240058344A1, “METHODS OF TREATING NEURODEGENERATIVE DISORDERS AND STAT3-LINKED CANCERS USING SUPPRESSORS OF ELECTRON LEAK” (Cornell University, priority 2020, published 2024):

Legend:
tau = test: Western blotting of phospho-tau and total tau in hippocampal tissue of hTauP301S mice; format: in vivo; conditions: 6 weeks oral dosing
From the text: Levels of phospho-tau (FIG. 5A) and total tau (FIG. 5B) as measured by Western blotting in hippocampal tissue from male nontransgenic (NTG) and hTauP301S mice after 6 weeks of oral dosing with S3QEL2 or vehicle. n=3-6 mice per group. *p<0.05, **p<0.01, ***p<0.001, ANOVA with Dunnett's test.
(§1) As assessed by immunolabeling, hTauP301S mice treated with S3QEL2 also had reduced levels of glial fibrillary acidic protein (GFAP)-positive astrogliosis and phosphorylated tau (FIG. 7). Western blotting confirmed reduced levels of phosphorylated but not total tau in these mice (FIG. 5).

ASC/Pycard; CD11b = test: Immunolabeling of ASC/Pycard and CD11b in hippocampal tissue of hTauP301S mice; format: in vivo; conditions: 6 weeks oral dosing
From the text: Levels of immunolabeling for the inflammasome protein ASC/Pycard (FIG. 6A) and the microglial marker CD11b (FIG. 6B) in hippocampal tissue from nontransgenic (NTG) and hTauP301S mice after 6 weeks of oral dosing with S3QEL2 or vehicle. n=3-6 mice per group. *p<0.05, **p<0.01, ***p<0.001, ANOVA with Dunnett's test.
as §1

lipocalin-2 = test: Lipocalin-2 protein released by primary astrocytes (ELISA); format: cell-based, mice; conditions: A1 cocktail, 60 μM, approximately 24 h
Protocol: Astrocytes isolated from P2-P3 mice were treated with A1 cocktail consisting of 30 ng/mL TNF-α, 3 ng/mL IL-1α, and 400 ng/mL Clq, and S3QEL2 (S3, 60 μM) or vehicle (Con) for approximately 24 h. Levels of astrocytic lipocalin-2 protein released into the culture media were analyzed by ELISA. n=4 wells per condition. **p<0.01, ***p<0.001, one-way ANOVA with Dunnett's multiple comparisons test.

isolated microglia = test: Markers of reactivity and immune signaling in isolated microglia (qRT-PCR); format: cell-based, mice; conditions: S3QEL2 20 μM, 24 h
Protocol: Microglia isolated from P2-P3 mice were treated with lipopolysaccharide (LPS, 100 ng/ml) or oligomeric Aβ (3 μM), and S3QEL2 (20 μM) or vehicle for 24 h and analyzed by qRT-PCR. n=3 wells per condition.

A-172 glioblastoma cells = test: Glioblastoma cell proliferation, CellTiter-Glo luciferase assay, A-172; format: cell-based, human; conditions: 0-50 μM, 72 and 96 h
Protocol: (§2) Relative cell density was measured using the CellTiter-Glo luciferase assay. n=3 wells per condition. *p<0.05, **p<0.01, ***p<0.001 vs. 0 μM, one-way ANOVA with Dunnett's multiple comparisons test.
(§3) The effect of S3QELs on proliferation of glial tumor cells that have different oncogenic mutations was assessed. In particular, proliferation rates were assessed in three different human immortalized glioblastoma cells lines (A-172, T98G, and U-87 MG). A-172 and U-87 lines have mutations in PTEN, a phosphatase that indirectly regulates PI3K activities, whereas T98G cell line has a mutation in p53, a well-known tumor suppressor gene. STAT3 can affect PI3K signaling and p53 transcription and could thereby promote glioblastoma cell proliferation. Whether S3QELs reduce glioblastoma cell proliferation and aberrant intracellular signaling was tested.
(§4) Briefly, two complementary methods were used to assess cell proliferation, including the CellTiter-Glo assay and DAPI staining of cell nuclei. The effects of S3QEL2 treatment on A-172, T98G, and U-87 MG cells were measured at different drug concentrations (0, 6, 20, 30, 40, or 50 μM) and time-points after treatment (72 or 96 hours). S3QEL2 inhibits proliferation of A-172 and T98G glioblastoma cells in a highly dose-dependent manner and these effects are similar at different time-points (FIG. 15A-B).

[1] = test system: U-87 MG glioblastoma cells; test: Glioblastoma cell proliferation, CellTiter-Glo luciferase assay, U-87 MG; format: cell-based, human; conditions: 0-50 μM, 72 and 96 h
Protocol: as §2, §3, §4

[2] = test system: U-87 MG glioblastoma cells; test: Glioblastoma cell proliferation, DAPI staining of cell nuclei, U-87 MG; format: cell-based, human; conditions: 72 h
Protocol: Cell density was measured using DAPI staining of cell nuclei and quantification of fluorescence intensities. n=3 wells per condition. […] STAT3 levels were measured by Western blotting. STAT3 levels were normalized to γ-tubulin levels within each cell lysate and expressed as fold change relative to U-87MG cells. n=4 wells per condition. **p<0.01, ***p<0.001 vs. 0 μM or U-87MG, one-way ANOVA with Dunnett's multiple comparisons test.
as §4

primary astrocytes = test: Intracellular ATP levels in primary astrocytes; format: cell-based
From the text: Antimycin A and myxothiazol were used as positive controls to inhibit mitochondrial respiration and ATP production. n=3 wells per condition. ***p<0.001 vs. vehicle, mixed-effects model with Dunnett's multiple comparisons test.

In the case of CCCN(CCC)c1ncnc2c1cnn2-c1ccc(C)c(C)c1 [S3QEL2], the “Phospho-tau levels (Western blotting)” value (tau) is reported as “reduced”, the ASC/Pycard protein immunolabeling (ASC/Pycard; CD11b) is reported as “reduced” and the CD11b protein immunolabeling (ASC/Pycard; CD11b) is reported as “reduced”. The “Release of lipocalin-2 protein into culture media” value (lipocalin-2) was “inhibited the release of lipocalin-2”, the “Markers of reactivity and immune signaling in microglia” value (isolated microglia; LPS 100 ng/ml) was “did not affect markers of reactivity and immune signaling” and the “Markers of reactivity and immune signaling in microglia” value (isolated microglia; oligomeric Aβ 3 μM) was “did not affect markers of reactivity and immune signaling”. For the same compound, the “Cell proliferation (relative cell density, CellTiter-Glo)” value (A-172 glioblastoma cells) was “dose-dependently inhibited cell proliferation”, the “Cell proliferation (relative cell density, CellTiter-Glo)” value [1] was “minimal effect” and the “Cell proliferation (cell density, DAPI staining)” value [2] was “but not U-87 MG cells”. The “Intracellular ATP levels” value (primary astrocytes) was “do not affect intracellular ATP levels”.
